Earlier results as cited in patent publication US20130184316A1, “METHODS FOR DIAGNOSING AND TREATING CONCUSSIVE DISORDERS” (priority 2010, published 2013).

Key:
[1] = system: patients with idiopathic cerebellar ataxia; conditions: literature (Sprenger et al.); cited from earlier work
[2] = system: patients with type-2 episodic ataxia (EA2); conditions: literature reports; cited from earlier work

Structure (SMILES)	Gravity-dependent symptoms associated with ataxic episodes [1]	Symptoms of EA2 (including downbeat nystagmus) [2]
Nc1ccncc1N [3,4-DAP, 3,4-diamino pyridine]	effective in ameliorating some gravity-dependent symptoms	–
CC(=O)Nc1nnc(S(N)(=O)=O)s1 [acetazolamide]	–	attenuated
